This is an account of results in ChEMBL document CHEMBL3638678, “4-substituted-cyclohexylamino-4-piperidinyl-acetamide antagonists of CCR2” (2014).

This test deals with C-C chemokine receptor type 2 (Homo sapiens, UniProt P41597). The test can be described thus: Binding Assay: MCP-1 Receptor Binding Assay in THP-1 Cells Human monocytic cell line THP-1 cells were obtained from American Type Culture Collection (Manassas, Va., USA). The THP-1 cells were grown in RPMI-1640 (RPMI: Roswell Park Memorial Institute Medium-cell culture growth media) supplemented with 10% fetal bovine serum in a humidified 5% CO2 atmosphere at 37 C. The cell density was maintained between 0.5x10^6 cells/mL.THP-1 (cells were incubated with 0.5 nM 125I labeled MCP-1 (Perkin-Elmer Life Sciences, Inc. Boston, Mass.) in the presence of varying concentrations of either unlabeled MCP-1 (R & D Systems, Minneapolis, Minn.) or test compound for 2 hours at 30 C. in a 96 well plate. Cells were then harvested onto a filter plate, dried, and 20 uL of Microscint 20 was added to each well. Plates were counted in a TopCount NXT, Microplate Scintillation & Luminescence Counter (Perkin-Elmer Life Sciences, Inc. Boston, Mass.). The class given is cell-based.
C-C chemokine receptor type 2, sequence (P41597 whole entry): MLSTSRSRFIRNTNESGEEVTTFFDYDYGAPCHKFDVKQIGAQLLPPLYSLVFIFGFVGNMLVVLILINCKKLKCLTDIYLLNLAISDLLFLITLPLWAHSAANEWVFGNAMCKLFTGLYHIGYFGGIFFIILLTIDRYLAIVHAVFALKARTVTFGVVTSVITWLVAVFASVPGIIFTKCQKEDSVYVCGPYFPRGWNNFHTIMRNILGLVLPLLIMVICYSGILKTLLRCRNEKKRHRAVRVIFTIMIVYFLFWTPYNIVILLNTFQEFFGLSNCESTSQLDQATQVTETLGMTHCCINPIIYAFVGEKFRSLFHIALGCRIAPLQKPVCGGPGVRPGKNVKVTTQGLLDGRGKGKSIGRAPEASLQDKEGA

By IC50 is commonly meant the concentration at which inhibition is half-maximal. As to `CC1(C)Cc2cc(/C=C/C(=O)N3CCC(C(NC4CCC(c5c[nH]c6ccccc56)CC4)C(N)=O)CC3)ccc2O1` (stereo unspecified), the half-maximal inhibitory concentration (IC50) was 1100 nM.
